Source: patent US20210323977A1, “PYRROLIDINYL AMIDE COMPOUNDS FOR THE TREATMENT OF AUTOIMMUNE DISEASE” (Hoffmann-La Roche Inc., priority 2018, published 2021)

molecular target: T1, human TLR9 (Homo sapiens, UniProt Q9NR96); assay: HEK293-Blue-hTLR-9 cells assay; type: cell-based; conditions: HEK293-Blue-hTLR9 cells, SEAP reporter, ODN2006 stimulation, 20 hrs
T1 sequence (Q9NR96 26-1032): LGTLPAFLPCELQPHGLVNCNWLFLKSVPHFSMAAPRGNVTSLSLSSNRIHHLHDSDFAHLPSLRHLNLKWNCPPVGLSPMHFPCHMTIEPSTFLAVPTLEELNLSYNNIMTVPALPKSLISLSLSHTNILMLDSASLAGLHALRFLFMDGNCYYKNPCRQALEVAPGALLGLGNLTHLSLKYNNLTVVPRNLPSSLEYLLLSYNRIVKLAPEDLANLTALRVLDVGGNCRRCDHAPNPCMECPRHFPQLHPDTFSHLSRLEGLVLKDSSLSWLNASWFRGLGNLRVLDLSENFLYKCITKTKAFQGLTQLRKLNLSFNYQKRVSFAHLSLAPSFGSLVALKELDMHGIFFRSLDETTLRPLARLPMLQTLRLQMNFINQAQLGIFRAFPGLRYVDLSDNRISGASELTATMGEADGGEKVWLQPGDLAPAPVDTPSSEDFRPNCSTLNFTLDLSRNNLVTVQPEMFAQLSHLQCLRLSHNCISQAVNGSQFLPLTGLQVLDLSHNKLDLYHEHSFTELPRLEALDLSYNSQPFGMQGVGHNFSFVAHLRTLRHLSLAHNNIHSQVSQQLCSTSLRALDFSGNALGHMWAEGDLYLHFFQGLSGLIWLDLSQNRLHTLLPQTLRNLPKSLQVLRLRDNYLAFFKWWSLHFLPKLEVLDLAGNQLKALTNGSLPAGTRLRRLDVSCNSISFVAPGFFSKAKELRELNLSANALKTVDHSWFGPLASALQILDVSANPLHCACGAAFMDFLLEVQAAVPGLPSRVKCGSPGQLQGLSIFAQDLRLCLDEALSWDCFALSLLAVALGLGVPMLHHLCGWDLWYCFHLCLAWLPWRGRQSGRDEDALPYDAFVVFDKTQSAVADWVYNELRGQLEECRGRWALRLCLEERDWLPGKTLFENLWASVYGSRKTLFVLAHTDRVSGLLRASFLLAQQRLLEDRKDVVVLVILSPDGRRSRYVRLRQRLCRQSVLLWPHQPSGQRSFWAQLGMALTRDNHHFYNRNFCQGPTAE
Excerpt: HEK293-Blue-hTLR-9 Cells Assay:
A stable HEK293-Blue-hTLR-9 cell line was purchased from InvivoGen (Cat. #: hkb-htlh9, San Diego, Calif., USA). These cells were originally designed for studying the stimulation of human TLR9 by monitoring the activation of NF-κB. A SEAP (secreted embryonic alkaline phosphatase) reporter gene was placed under the control of the IFN-β minimal promoter fused to five NF-κB and AP-1-binding sites. The SEAP was induced by activating NF-κB and AP-1 via stimulating HEK-Blue hTLR9 cells with TLR9 ligands. Therefore the reporter expression was declined by TLR9 antagonist under the stimulation of a ligand, such as ODN2006 (Cat. #: tlrl-2006-1, Invivogen, San Diego, Calif., USA), for incubation of 20 hrs. The cell culture supernatant SEAP reporter activity was determined using QUANTI-Blue™ kit (Cat. #: rep-qb1, Invivogen, San Diego, Calif., USA) at a wavelength of 640 nm, a detection medium that turns purple or blue in the presence of alkaline phosphatase.
HEK293-Blue-hTLR9 cells were incubated at a density of 250,000-450,000 cells/mL in a volume of 170 μL in a 96-well plate in Dulbecco's Modified Eagle's medium (DMEM) containing 4.5 g/L glucose, 50 U/mL penicillin, […], […], 2 mM L-glutamine, 10% (v/v) heat-inactivated fetal bovine serum with addition of 20 sL test compound in a serial dilution in the presence of final DMSO at 1% and 10 sL of 20 uM ODN2006 in above DMEM, perform incubation under 37° C. in a CO2 incubator for 20 hrs. Then 20 sL of the supernatant from each well was incubated with 180 μL Quanti-blue substrate solution at 37° C. for 2 hrs and the absorbance was read at 620-655 nm using a spectrophotometer. The signalling pathway that TLR9 activation leads to downstream NF-x3B activation has been widely accepted, and therefore similar reporter assay was modified for evaluating TLR9 antagonist.

Q: `N#Cc1ccc(N2CC(C(=O)NCC3CNCCO3)C3(CC3)C2)c2nccnc12` (centres unmarked) [Example 13, 5-(8-Cyanoquinoxalin-5-yl)-N-(morpholin-2-ylmethyl)-5-azaspiro[2.4]heptane-7-carboxamide] was tested. Which IC50 did it give?
A: 2.1 µM

Q: For `N[C@H]1CC[C@H](NC(=O)C2CN(c3ccc(C(F)(F)F)c4nccnc34)CC23CC3)CC1` (some centres unmarked) [Example 24, N-(4-aminocyclohexyl)-5-[8-(trifluoromethyl)quinoxalin-5-yl]-5-azaspiro[2.4]heptane-7-carboxamide], which IC50 is on record?
A: 27.8 µM

Q: How did the IC50 turn out when `NC1CC(CNC(=O)C2CN(c3ccc(C(F)(F)F)c4nccnc34)CC23CC3)C1` (centres unmarked) [Example 31, N-[(3-aminocyclobutyl)methyl]-5-[8-(trifluoromethyl)quinoxalin-5-yl]-5-azaspiro[2.4]heptane-7-carboxamide] was run?
A: 9.3 µM

Q: `N#Cc1ccc(N2CC(C(=O)NC3CCCNCC3)C(C(F)(F)F)C2)c2cccnc12` (single isomer, unassigned) [Example 30B, N-(azepan-4-yl)-1-(8-cyano-5-quinolyl)-4-(trifluoromethyl)pyrrolidine-3-carboxamide] was tested. Which IC50 did it give?
A: 16.2 µM

Q: Which IC50 does the source give for `CN1CCC(NC(=O)C2CN(c3ccc(C#N)c4ncccc34)CC23CC3)CC1` (single isomer, unassigned) [Example 41A, 5-(8-Cyano-5-quinolyl)-N-(1-methyl-4-piperidyl)-5-azaspiro[2.4]heptane-7-carboxamide] here?
A: 4.5 µM
